According to US9526717B2, “Composition for treating immune diseases containing daurinol compound as active ingredient” (THE CATHOLIC UNIVERSITY OF KOREA INDUSTRY-ACADEMIC …, priority 2013, dated 2016):

Tests used:
splenocyte cell line = experiment: TNF-α secretion of LPS treated splenocyte cell line (sandwich ELISA); format: cell-based; conditions: 20 μM daurinol; LPS 100 ng/mL
Method: For this purpose, a splenocyte cell line was treated with anti-CD3 antibodies (0.5 μg/mL) to induce the secretion of IL-17, or treated with LPS (100 ng/mL) to induce the secretion of TNF-α. Then, the splenocyte cell line was treated with daurinol at concentrations of 0.5 μM, 2.5 μM, and 20 μM, and the supernatants were combined and the amount of IL-17 and TNF-α were examined by sandwich ELISA assay. The resultant was reacted in a 96-well plate with monoclonal anti-IL-17 or anti-TNF-α (2 μg/mL) at 4° C. overnight, and upon reaction, the non-specific binding was blocked using a blocking solution (1% BSA/PBST). IL-17 recombinant or TNF-α in a half amount was continuously diluted and used as standards, and the supernatant of cell culture was reacted at room temperature for 2 hours. Then, the biotinylated anti-IL-17 was reacted at room temperature for 2 hours, washed 4 times, and added with ExtraAvidin-alkaline phosphatase conjugate after dilution, and reacted at room temperature for 2 hours. Subsequently, PNPP/DEA solution was added thereto to fix color and absorbance was measured at 405 nm.

[1] = system: splenocytes of an animal model with obesity arthritis; experiment: Th17/Treg activity by flow cytometry in splenocytes of animal model with obesity arthritis; format: cell-based; conditions: daurinol 1 μM, anti-CD3 0.5 μg/mL, 3 days
Method: Additionally, for the confirmation of controlling the activity of Th17/Treg cells, the splenocytes of an animal model with obesity arthritis were treated with daurinol (1 μM) and anti-CD3 (0.5 μg/mL) and cultured for 3 days, and the activity of Th17/Treg cells controlled by daurinol were evaluated via flow cytometry.

[2] = system: splenocytes of the animal model with lupus; experiment: IL-17 level in splenocytes of animal model with lupus (ELISA); format: cell-based; conditions: daurinol 1 μM and 5 μM, anti-CD3 0.5 μg/mL or LPS 100 ng/mL, three days
Method: (§1) Additionally, for the confirmation of the effect of controlling the formation of inflammatory cytokines, the splenocytes of the animal model with lupus were treated with daurinol (1 μM and 5 μM) and anti-CD3 (0.5 μg/mL) or LPS (100 ng/mL) for three days and the levels of IL-17 and TNF-α inflammatory cytokines were evaluated by ELISA assay.

VEGF = VEGF expression in the intestinal tissues of IBD mouse model; format: in vivo; conditions: animal (mouse) model with inflammatory bowel disease
Description: For the confirmation of the effect of the daurinol compound of the present invention on the treatment of inflammatory bowel disease, the present inventors first constructed an animal model with induced inflammatory bowel disease. For the experimental model, C57BL/6(H-2kb) mice were used. For the construction of an animal model with induced inflammatory bowel disease, the mice were fed with 3.5% dextran sulfate sodium (DSS) and water for a week, thereby preparing an animal model with induced inflammatory bowel disease.
The present inventors divided the experimental animals into a normal control group, a group of an animal model with induced inflammatory bowel disease, and a group of an animal model with induced inflammatory bowel disease treated with daurinol or a TNF-α inhibitor, and the group treated with daurinol was administered orally and intrarectally with daurinol (20 mg/kg) from the 4th day after the induction with the disease.

[3] = system: splenocytes of an animal model with obesity-derived rheumatoid arthritis; experiment: IL-17 ELISA in splenocytes of animal model with obesity arthritis; format: cell-based; conditions: daurinol 1 μM and 5 μM, anti-CD3 0.5 μg/mL
Method: The splenocytes of an animal model with obesity-derived rheumatoid arthritis were treated with daurinol (1 μM and 5 μM) and anti-CD3 (0.5 μg/mL), and IL-17, the inflammatory cytokine expressed thereafter, was evaluated via ELISA assay.

[4] = system: animal model with graft versus host disease; experiment: Therapeutic effect in animal model with graft versus host disease (GVHD); format: in vivo, mouse; conditions: GVHD Balb/c recipient mice, daurinol 20 mg/kg 3 times a week, total of 9 times, vs GVHD control group
Description: In order to confirm whether daurinol can be actually applied to the treatment of a different immune disease, the therapeutic effects of daurinol was examined using an animal model with graft versus host disease. First, for the construction of an animal with graft versus host disease, a recipient mouse, Balb/c(H-2k/d), was exposed to total body irradiation (TBI) (800 cGy). Then, hematopoietic stem cells and splenocytes were isolated from the femur and the tibia of the donor mouse and the hematopoietic stem cells (5×10^6 cells) and the splenocytes (1×10^6 cells) were transplanted to a recipient mouse Balb/c(H-2k/d). After the transplantation, daurinol (20 mg/kg of weight) was injected 3 times a week for a total of 9 times, and in particular, daurinol was used after dissolving in a mixed solvent (DMSO:Crernophor EL:DW=1:1:8). The experiment was performed and analyzed for the experimental groups in which each group consisted of five mice.

[5] = system: splenocytes of an animal model with lupus; experiment: Th17/Treg activity by flow cytometry in splenocytes of animal model with lupus; format: cell-based; conditions: daurinol 1 μM, anti-CD3 0.5 μg/mL, three days
Method: Finally, for the confirmation of the controlling the activity of Th17/Treg cells, the splenocytes of an animal model with lupus were culture for three days after treating with daurinol (1 μM) and anti-CD3 (0.5 μg/mL), and the activity of Th17/Treg cells being controlled by daurinol was evaluated by flow cytometry.

CD4+ T cells = experiment: IL-17 expression in allogenic reaction in vitro; format: cell-based, mouse; conditions: daurinol 0.5, 2, 10 and 20 μM
Method: For the confirmation of the effect of the daurinol compound on the inhibition of T cell proliferation and the expression amount of IL-17, the CD4+ T cells (2×10^5 cells) of a normal recipient (Balb/c, responder), and the T cell-removed splenocytes (2×10^5 cells) derived from a recipient (homogenic) or the splenocytes (2×10^5 cells) derived from a donor (C57BL/6, stimulator, allogenic) exposed to irradiation were added to each well of a 96-well round bottom plate, mixed, and cultured in vitro. In particular, the T cell proliferation and the secretion of IL-17 when an allogenic reaction was untreated with daurinol or treated with daurinol at 0.5 μM, 2 μM, 10 μM, and 20 μM, respectively, were observed.

[6] = system: animal model with inflammatory bowel disease; experiment: Expression of inflammatory cytokines in the tissues of the large intestine of IBD model; format: in vivo, mouse; conditions: daurinol treated
Description: For the confirmation of the effect of the daurinol compound of the present invention on the treatment of inflammatory bowel disease, the present inventors first constructed an animal model with induced inflammatory bowel disease. For the experimental model, C57BL/6(H-2kb) mice were used. For the construction of an animal model with induced inflammatory bowel disease, the mice were fed with 3.5% dextran sulfate sodium (DSS) and water for a week, thereby preparing an animal model with induced inflammatory bowel disease. The present inventors divided the experimental animals into a normal control group, a group of an animal model with induced inflammatory bowel disease, and a group of an animal model with induced inflammatory bowel disease treated with daurinol or a TNF-α inhibitor, and the group treated with daurinol was administered orally and intrarectally with daurinol (20 mg/kg) from the 4th day after the induction with the disease.

[7] = system: splenocytes of the animal model with lupus; experiment: TNF-α level in splenocytes of animal model with lupus (ELISA); format: cell-based; conditions: daurinol 1 μM and 5 μM, anti-CD3 0.5 μg/mL or LPS 100 ng/mL, three days
Method: as §1

COc1cc2c(-c3ccc4c(c3)OCO4)c3c(cc2cc1O)COC3=O [daurinol]
secretion of TNF-α decreased by (splenocyte cell line): about 40% | activity of Foxp3+ Treg cells (flow cytometry) [1]: induced the activity of Foxp3+ Treg cells | expression of IL-17 (Th17, flow cytometry) [1]: significantly inhibited the expression of IL-17 | expression of IL-17 (ELISA) [2]: inhibited the expression of IL-17 and TNF-α in a dose-dependent manner | VEGF expression in the intestinal tissues (VEGF): significantly inhibited the VEGF expression | expression of IL-17 (ELISA) [3]: inhibits the expression of IL-17 in a dose-dependent manner | degree of disease [4]: improvement in the degree of disease | degree of survival [4]: maintenance of the degree of survival for 30 days | Th17 activity (flow cytometry) [5]: inhibit the Th17 activity | activity of Foxp3+ Treg cells (flow cytometry) [5]: induce the activity of Foxp3+ Treg cells | expression of IL-17 (CD4+ T cells): inhibited the expression of IL-17 | expression of IL-1b in the tissues of the large intestine [6]: significantly inhibit | expression of IL-6 in the tissues of the large intestine [6]: significantly inhibit | expression of IL-8 in the tissues of the large intestine [6]: significantly inhibit | expression of IL-17 in the tissues of the large intestine [6]: significantly inhibit | expression of TNF-α in the tissues of the large intestine [6]: significantly inhibit | expression of TNF-α (ELISA) [7]: inhibited the expression of IL-17 and TNF-α in a dose-dependent manner
